Laboratory results: publication PMC6254723, “Synthesis and Pharmacological Screening of Several Aroyl and Heteroaroyl Selenylacetic Acid Derivatives as Cytotoxic and Antiproliferative Agents” (Molecules, 2009)
“Also recorded” adds a separate entry of the source. Read-outs that look alike come from different tables or passages of the source.

How the values were obtained:
MCF-7 cells [1] = experiment: Cell cycle progression by flow cytometry; assay type: cell-based, human; details: MCF-7, 25 μM, 48 hours
Protocol: Cell cycle arrest is one of the targets of many anticancer drugs, including doxorubicin and camptothecin. In an effort to ascertain whether compound 1 could affect cell cycle progression in MCF-7 cells, these cells were treated with 25 μM of the corresponding compound for 48 hours and cell cycle progression was determined by flow cytometry analysis.
(§1) For breast adenocarcinoma MCF-7 cells, the apoptotic status and cell cycle analysis of the cells were determined using the Apo-Direct kit (BD Pharmingen), based on the TUNEL technique, under the conditions described by the manufacturer.

MCF-7 [2] = experiment: MTT cytotoxicity assay (NCI) in MCF-7; assay type: cell-based, human
Protocol: (§2) In order to investigate the effect of the active compounds in more detail, we examined the activity on proliferation in other cancer cell lines. […] Tests were carried out in the Department of Health Science, Public University of Navarra against a panel of four human tumour cell lines: lung (HTB-54), colon (HT-29), leukaemia (CCRF-CEM) and breast adenocarcinoma (MCF-7). Cytotoxicity assays were performed based on the reactivity of MTT [3-(4,5-dimethylthiazol-2-yl)-2,5-diphenyl-tetrazolium bromide], as described by NCI [39]. […] Doxorubicin was used as a control. As guidance with regard to selectivity, all of the compounds were further examined for toxicity in a mammary gland cell culture derived from non-malignant cells (184B5). Drug concentrations ranged from 0.01 to 100 μM.
(§3) The cytotoxic effects of each substance were tested at five different doses between 0.01 and 100 μM. Each substance was initially dissolved in DMSO at a concentration of 0.1 M, and serial dilutions were prepared using culture medium. The plates with cells from the different lines, to which medium containing the substance under test were added, were incubated for 72 h at 37 °C in a humidified atmosphere containing 5% CO2. European Collection of Cell Cultures (ECACC) or American Type Culture Collection (ATCC) provided human tumour cell lines. Four cell lines were used: one human lymphocytic leukemia (CCRF-CEM) and three human solid tumours, one colon carcinoma (HT-29), one lung carcinoma (HTB-54) and one breast adenocarcinoma (MCF-7). CCRF-CEM, HT-29 and HTB-54 cells were grown in RPMI 1640 medium (Life Technologies, Carlsbad, CA, USA) supplemented with 10% foetal calf serum, 2 mM L-glutamine, 100 units/mL penicillin, 100 μg/mL streptomycin and 10 mM HEPES buffer (pH = 7.4). MCF-7 cells were grown in EMEM medium (Clonetics) supplemented with 10% foetal calf serum, 2 mM L-glutamine, 100 units/mL penicillin and 100 μg/mL streptomycin. 184B5 cells were grown Hams F-12/DMEM (50:50) supplemented as described by Li et al.. Cytotoxicity was then determined by the MTT method. […] Data were obtained from at least three independent experiments performed in quadruplicate.

HT-29 = experiment: MTT cytotoxicity assay (NCI) in HT-29; assay type: cell-based, human
Protocol: as §2, §3

PC-3 cell line [3] = experiment: MTT cytotoxicity assay in PC-3; details: Homo sapiens
Protocol: The results are tabulated as IC50 values. All experiments were independently performed at least three times and the values were calculated after 72 hours exposure (drug concentrations of 2, 5, 7 and 10 μM).
PC-3 cells were seeded in 96-well plates (Millipore, Eschborn, Germany) at a density of 5 × 10^3 cells per well. The samples were incubated at 37 °C under 5% CO2 overnight prior to the addition of the compounds. Compounds were diluted in complete medium. After 3 days of incubation, 10 μL MTT solution (5 mg/mL in PBS) was added to the cells in each well and these were stored for an additional 4 h at 37 °C. […] The percentage of viable cells was calculated to obtain IC50-values.
PC-3 are human tumorigenic and metastatic prostate cancer cells and these were obtained from American Type Culture Collection (ATCC, Manassas, VA, USA) (passage 36).

CCRF-CEM = experiment: MTT cytotoxicity assay (NCI) in CCRF-CEM; assay type: cell-based, human; details: 72 h
Protocol: as §2, §3

MCF-7 cells [4] = experiment: Apoptosis, Apo-Direct kit (TUNEL); assay type: cell-based, human; details: MCF-7, 25 μM, 48 hours
Protocol: The apoptotic status of the cells after 48 hours of treatment with 25 μM of the corresponding compound was determined using the Apo-Direct kit (BD Pharmingen) based on the TUNEL technique. Camptothecin was used as a positive control.
as §1

HTB-54 = experiment: MTT cytotoxicity assay (NCI) in HTB-54; assay type: cell-based, human
Protocol: as §2, §3

[5] = MTT toxicity assay in non-malignant mammary gland cells 184B5; assay type: cell-based; details: human; 72 h, non-malignant cells, dose that inhibits 50% of cell growth; read-out: GI50 184B5
Protocol: as §2, §3

184B5 = experiment: as above; assay type: cell-based
Protocol: as §2, §3

PC-3 cell line [6] = details: cited from earlier work
MCF-7 [7] = details: comparison drugs, MCF-7 by context; no reference given; cited from earlier work
[8] = listed as benzoylselenylacetic acid
[9] = 72 h, dose that completely inhibits cell growth
[10] = 72 h, dose that kills 50% of cells

## O=C(O)C[Se]C(=O)c1ccccc1 [Compound 1, (Benzoylselenyl)acetic acid]
MCF-7 cells [1]
  effect on cell cycle progression: did not induce any specific phase arrest of the cell cycle
MCF-7 cells [1]; [8]
  effect on cell cycle progression: nor did it perturb the cell cycle
MCF-7 [2]; [9]
  TGI MCF-7: 3.69 µM
MCF-7 [2]; [10]
  LD50 MCF-7: 58.01 µM
MCF-7 [2]; Homo sapiens, MCF7, 72 h, read-out: GI50 MCF-7
  GI50: 0.09 µM
HT-29; [9]
  TGI HT-29: 55.98 µM
HT-29; [10]
  LD50 HT-29: >100 µM
HT-29; Homo sapiens, HT-29, 72 h, read-out: GI50 HT-29
  GI50: 7.39 µM
PC-3 cell line [3]; PC-3, 72 h, read-out: IC50 PC-3 cell line
  IC50: 6.8 µM
PC-3 cell line [3]; PC-3, read-out: IC50 (cytotoxic activity in PC-3 cell line)
  IC50: 6.8 µM
CCRF-CEM; dose that completely inhibits cell growth
  TGI CCRF-CEM: >100 µM
CCRF-CEM; dose that kills 50% of cells
  LD50 CCRF-CEM: >100 µM
CCRF-CEM; Homo sapiens, CCRF-CEM, read-out: GI50 CCRF-CEM
  GI50: > 100 µM
MCF-7 cells [4]
  induction of apoptosis: induction of cell death was independent of the apoptotic process; also recorded: mechanism of action is independent of apoptosis
MCF-7 cells [4]; [8]
  induction of apoptosis: did not provoke apoptosis
HTB-54; [9]
  TGI HTB-54: 42.47 µM
HTB-54; [10]
  LD50 HTB-54: >100 µM
HTB-54; Homo sapiens, HTB-54, 72 h, read-out: GI50 HTB-54
  GI50: 0.58 µM
[5]
  GI50 at 72 h: 1.97 µM
184B5; 72 h, non-malignant cells, dose that completely inhibits cell growth
  TGI 184B5: 22.50 µM
184B5; 72 h, non-malignant cells, dose that kills 50% of cells
  LD50 184B5: 76.73 µM
184B5; LD50 in 184B5 divided by LD50 in MCF-7
  selectivity index (184B5/MCF-7 LD50 ratio): 1.3

## COc1cc([C@@H]2c3cc4c(cc3[C@@H](O[C@@H]3O[C@@H]5CO[C@@H](C)O[C@H]5[C@H](O)[C@H]3O)[C@H]3COC(=O)[C@H]23)OCO4)cc(OC)c1O [Etoposide]
PC-3 cell line [6]; etoposide control
  IC50: 13.6 ± 2.2 µM

## C[Se](=O)O [MSA, methylseleninic acid]
PC-3 cell line [6]; methylseleninic acid control
  IC50: 8.38 µM

## CCC1=C[C@@H]2CN(C1)Cc1c([nH]c3ccccc13)[C@@](C(=O)OC)(c1cc3c(cc1OC)N(C)[C@H]1[C@@](O)(C(=O)OC)[C@H](OC(C)=O)[C@]4(CC)C=CCN5CC[C@]31[C@@H]54)C2 [vinorelbine]
MCF-7 [7]
  GI50: 5 ± 1.3 µM
  TGI: 100 ± 10.2 µM
